The values below come from US20240261292A1, “COMBINATION THERAPIES” (Janssen Pharmaceutica NV, priority 2021, published 2024).

One data set deals with OCI-AML3 tumors. As to the kind of experiment: Efficacy of menin-MLL inhibitor in combination with DHODH inhibitor in OCI-AML3 (NPM1c) IV model. The following applies: NSG mice. It is filed as in vivo. An excerpt: 15B) Efficacy of Menin-MLL Inhibitor in Combination with DHODH Inhibitor in OCI-AML3 (NPM1c) IV Model in NSG Mice In the OCI-AML3 efficacy study, mice bearing IV OCI-AML3 xenograft tumors were randomly assigned to treatment groups 5 days post-tumor cell engraftment.

Data set [1] concerns OCI-AML3 cells. As to the kind of experiment: In vitro proliferation (spheroid, Incucyte), menin-MLL inhibitor with DHODH inhibitor, OCI-AML3. It is filed as cell-based, human. The following applies: 8 days.
Text: Spheroid-like growth was monitored in real-time by non-invasive live-cell imaging using the 4× objective of the Incucyte ZOOM live cell imaging system (Essen BioScience), and acquiring images on Day 8. […] The DMSO content was normalized to 0.3% and the percent confluence from the DMSO well was used as baseline response. […] Data from 2 independent experiments from MOLM-13 or 3 independent experiments from OCI-AML3 cells were pooled and analyzed.
In another data set the test system is MOLM-13 tumors. As to the kind of experiment: Efficacy of menin-MLL inhibitor in combination with DHODH inhibitor in MOLM-13 (KMT2A-r) IV model. It counts as in vivo. The conditions noted are these: MOLM-13 IV, NSG mice. The source says: 15) In Vivo Efficacy of Menin-MLL Inhibitor in Combination with DHODH Inhibitor in Disseminated Models of Human Acute Myeloid Leukemia (MOLM-13 and OCI-AML) 15A) Efficacy of Menin-MLL Inhibitor in Combination with DHODH Inhibitor in MOLM-13 (KMT2A-r) IV Model in NSG Mice
Day 0 is the day of tumor cell implantation and study initiation. In the MOLM-13 efficacy study, mice bearing IV MOLM-13 xenograft tumors were randomly assigned to treatment groups 5 days post-tumor cell engraftment.

Data set [2] concerns OCI-AML3 cells. As to the kind of experiment: Proliferation assay (spheroid), OCI-AML3. It counts as cell-based, human. The conditions noted are these: 8 days. How it is done: The anti-proliferative effect of menin/MLL protein/protein interaction inhibitor test compounds was assessed inhuman leukemia cell lines. The cell line MOLM-14 harbors a MLL translocation and expresses the MLL fusion protein MLL-AF9, respectively, as well as the wildtype protein from the second allele. OCI-AML3 cells that carry the NPM1c gene mutation were also tested. […] KO-52 was used as a control cell line containing two MLL (KMT2A) wildtype alleles in order to exclude compounds that display general cytotoxic effects.
KO-52 and OCI-AML3 cell lines were propagated in alpha-MEM (Sigma Aldrich) supplemented with 20% heat-inactivated fetal bovine serum (HyClone), 2 mM L-glutamine (Sigma Aldrich) and 50 μg/ml gentamycin (Gibco).
In order to assess the anti-proliferative effects, 200 MOLM-14 cells, 200 OCI-AML3 cells or 300 KO-52 cells were seeded in 200 μl media per well in 96-well round bottom, ultra-low attachment plates (Costar, catalogue number 7007). Cell seeding numbers were chosen based on growth curves to ensure linear growth throughout the experiment. Test compounds were added at different concentrations and the DMSO content was normalized to 0.3%. Cells were incubated for 8 days at 37° C. and 5% CO2. Spheroid like growth was measured in real-time by live-cell imaging (IncuCyteZOOM, Essenbio, 4× objective) acquiring images at day 8. Confluence (%) as a measure of spheroid size was determined using an integrated analysis tool.
In order to determine the effect of the test compounds over time, the confluence in each well as a measure of spheroid size, was calculated. Confluence of the highest dose of a reference compound was used as baseline for the LC (Low control) and the confluence of DMSO treated cells was used as 0% cytotoxicity (High Control, HC).
HC=High Control: Mean confluence (%) (DMSO treated cells);
Dose-response equation was used for the plot of % Effect vs Log10 compound concentration with a variable slope and fixing the maximum to 100% and the minimum to 0%. 2b) MEIS1 mRNA Expression Assay

In data set [3] the test system is iCell Cardiomyocytes2 (hSC-CMs). As to the kind of experiment: Ca2+-fluorescence assay in human pluripotent stem cell-derived cardiomyocytes (CTCM human). It is filed as cell-based. More on the design: key to Hazard Scoring Color @ 0.1 μM / Hazard Scoring Color @ 0.2 μM / Hazard Scoring Color @ 0.5 μM / Hazard Scoring Color @ 1 μM / Hazard Scoring Color @ 2.5 μM / Hazard Scoring Color @ 5 μM / Hazard Scoring Color @ 0.3 μM / Hazard Scoring Color @ 3 μM / Hazard Scoring Color @ 10 μM / Hazard Scoring Color @ 30 μM: Green: No concern; Yellow: Low concern; Red: High concern; Black: Very high concern due to arrhythmic events. How it is done:
7) Cardio-Electrophysiological Effects of the Testing Compounds in Synchronously Beating Human Pluripotent Stem Cell-Derived Cardiomyocytes (hSC-CMs) Using a Ca^2+-Fluorescence Assay (CTCM Human)
Compounds were tested in the 96-well plates.
Compounds were tested at 0.1 μM, 0.2 μM, 0.5 μM, 1 μM, 2.5 μM and 5 μM (n=4 per dose) on Cor.4U®-Cardiomyocytes or on iCell® Cardionyocytes2.
Alternatively, compounds were tested at 0.1 μM, 0.3 μM; 1 μM, 3 μM, 10 μM and 30 μM (n=4 per dose) mostly on iCell® Cardiomyocytes2.
Vehicle control: Dimethylsulfoxide (DMSO). The solutions of the compound in DMSO or its solvent (final concentration of 0.1% DMSO; n=8).
Tested compounds were dissolved in DMSO at 1000-fold the intended concentrations. A compound “mother-plate” was made, containing the test compounds and positive and negative controls at 1000-fold the final concentrations. At the experiment day, these stock solutions were diluted with Tyrode (Sigma), supplemented with 10 mM HEPES (Gibco), to 2-fold the intended concentration (in round bottom compound plates). Final DMSO concentration in test solutions and vehicle control was 0.1%.
hSC-CMs (Cor.4U® Cardiomyocytes) were obtained from CDI (Ncardia, Germany). Cells are pre-plated and seeded in fibronectin-coated 96-well plates at a density suited to form a monolayer and maintained in culture in a stage incubator (37° C., 5% CO2), according to the instructions of the cell provider.
Second line hSC derived cardiomyocyte called iCell® Cardiomyocytes2 were purchased from FUJIFILM Cellular Dynamics (USA). The experiments with test drugs are carried out 5 to 7 days after plating the cells onto the plate to have a living, beating monolayer of hiPSC-derived cardiomyocytes. The beating monolayer in 96-well-plates are normally taken from 2 Vials of frozen iCell® Cardiomyocytes2 (≈5 million cells/vial), which will be plated onto three 96-well plates (≈50K/well).
At least one hour before the start of the experiments the normal cell medium was replaced with Tyrode solution with Calcium dye (see below).
Cal 520 dye (AAT Bioquest) was dissolved in 11 ml of Tyrode supplemented with 10 mM HEPES and warmed up to 37 C before adding to the cells.
35 μl cell culture medium was removed from each well and replaced with 35 μl of pre-warmed Cal 520 dye solution and cell plate was incubated for 45 min at 37° C./5% CO2. Cells were incubated for 5 min at 37° C.
Spontaneous electrical activity is recorded, using Cal520™ (AAT Bioquest) calcium fluorescence-dye signalling. This dye integrates the total intracellular calcium activity over the whole well. A bottle of Ca1520 dye (50 μg, MW: 1103/mol) is dissolved with 50 μl DMSO as a stock solution of 0.9 mM. 50 μL of the stock solution of the dye was added to 10 ml Tryodes solution to have dye concentration of 4.5 μM. Subsequently, 35 μl of this dye solution was added into each well, to have a final dye concentration of 1.58 μM. The current dye protocol on this CTCM human assay was established recently (Ivan Kopljar et al, Journal of Pharmacological and toxicological methods 2018. 91: 80-86; Lu et al., Tox Sci 2019. 170 (2): 345-356).
Fluorescent signals (Ca^2+ transient morphology) were measured using the Functional Drug Screen System (FDSS/μCell; Hamamatsu, Japan) and the recordings were subsequently analyzed off-line, using appropriate software e.g., Notocord.
The cell plate was loaded into the FDSS/μCell for a test run: Ca^2+ transients were measured for 4 minutes to check for synchronous beating of the cardiomyocytes in each well. All 96 wells were measured simultaneously (sampling interval: 0.06 s, short exposure time: 10 ms; excitation wavelength 480 nm; emission wavelength 540 nm; FDSS/μCell warmed to 37° C.).
During the compound addition step, 100 μl of the respective double-concentrated test solutions was pipetted into each well simultaneously.
Data were analyzed off-line using appropriate software e.g., Notocord-Hem (version 4.3). […]

[4] abbreviates: Compound 22 0.125 mg/kg PO daily 28 days.
The mark [5] stands for this setting: Compound 22 0.25 mg/kg PO daily 28 days.
The mark [6] stands for this setting: Compound 22 0.0125 mg/kg (so in the source) PO daily 28 days.
The mark [7] stands for this setting: Compound 22 0.063 mg/kg PO daily 28 days.
Setting [8] is: efficacious dose in mouse xenograft models of 30 mg/kg, (mouse, human), estimated.

As to `CCn1c(CO)nn(-c2cc3c(C(C)C)cn(-c4ccccc4C)c(=O)c3cc2F)c1=O` [Compound 22, 6-(4-Ethyl-3-(hydroxymethyl)-5-oxo-4,5-dihydro-1H-1,2,4-triazol-1-yl)-7-fluoro-4-isopropyl-2-(o-tolyl)isoquinolin-1(2H)-one], the “% ILS” value with OCI-AML3 tumors (setting [4]) was “*60%”; in the data set on OCI-AML3 tumors (setting [5]), “*65%”; in the data set on MOLM-13 tumors (setting [6]), “*125%”; in the data set with MOLM-13 tumors (setting [7]) it was “*111%”. The “Median Survival” value in the data set with OCI-AML3 tumors (setting [4]) is 41.5; in the data set with OCI-AML3 tumors (setting [5]), 43; with MOLM-13 tumors (setting [6]), 40.5; with MOLM-13 tumors (setting [7]), 38. Also, the “Growth inhibition, monotherapy (in words)” value in the data set with OCI-AML3 cells [1] is given as “potent growth inhibition”.

One may read the IC50 as the concentration that gives 50% inhibition. On to `CCN(C(=O)c1cc(F)ccc1Oc1nncnc1N1CCC2(C1)CN([C@H](CCCN(C)CCOC)C(C)C)C2)C(C)C` [Compound A1], for which the IC50 with OCI-AML3 cells [2] was determined as 80 nM. Moreover, the “Hazard Scoring Color @ 0.1 μM” value in data set [3] (0.1 μM, 30 min, iCell Cardiomyocytes2 (Table 12)) is on record as “Green”. In data set [3] (0.3 μM, 30 min, iCell Cardiomyocytes2 (Table 12)), the “Hazard Scoring Color @ 0.3 μM” value is recorded as “Green”. Also, the “Hazard Scoring Color @ 1 μM” value in data set [3] (1 μM, 30 min, iCell Cardiomyocytes2 (Table 12)) is listed as “Green”. The “Hazard Scoring Color @ 3 μM” value in data set [3] (3 μM, 30 min, iCell Cardiomyocytes2 (Table 12)) is given as “Green”. Moreover, the “Hazard Scoring Color @ 10 μM” value in data set [3] (10 μM, 30 min, iCell Cardiomyocytes2 (Table 12)) is “Green”. The “Hazard Scoring Color @ 30 μM” value in data set [3] (30 μM, 30 min, iCell Cardiomyocytes2 (Table 12)) is “yellow”. Moreover, in data set [3] (setting [8]), the “Margin CTCM human 10 μM vs free Cmax” value is on record as greater than 16 and the “Margin CTCM human 30 μM vs free Cmax” value was greater than 45.
